Laboratory results reported in patent EP0181129B1, “N6-substituted deoxyribose analogs of adenosines” (WARNER-LAMBERT COMPANY, priority 1984, dated 1986).
pIC50: −log10 of the molar value. Where two headings read alike, the source gives them in different places.

Experiments:
adenosine A1 receptor = target: T1, adenosine A1 receptor (Rattus norvegicus, UniProt P25099); test: Adenosine Receptor Binding - A1 Receptor Affinity (RBA1), [3H]-CHA displacement; conditions: rat whole brain membranes, one hour at 25°C
T1 construct: brain minus cerebellum and brainstem from male Long Evans rats (150-200 g) was homogenized; from tissue; host or cells: rat whole brain minus cerebellum and brainstem, membrane homogenate
T1 sequence (P25099 1-326): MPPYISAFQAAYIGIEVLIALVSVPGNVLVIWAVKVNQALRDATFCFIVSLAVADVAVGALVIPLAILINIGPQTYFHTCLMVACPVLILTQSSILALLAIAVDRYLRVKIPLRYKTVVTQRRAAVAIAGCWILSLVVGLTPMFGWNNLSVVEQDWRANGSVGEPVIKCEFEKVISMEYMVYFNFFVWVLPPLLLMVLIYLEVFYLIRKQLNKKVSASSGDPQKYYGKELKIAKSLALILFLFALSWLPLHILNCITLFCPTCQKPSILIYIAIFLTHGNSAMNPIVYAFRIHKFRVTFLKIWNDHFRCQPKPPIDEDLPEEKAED
Protocol: While brain minus cerebellum and brainstem from male Long Evans rats (150-200 g) was homogenized in 30 volumes of ice-cold 0.05 M Tris-CHI buffer pH 7.7 using a Brinkman Polytron PT-10, (setting number 6 for 20 seconds) and centrifuged for ten minutes at 20,000 x g (Sorvall RC-2), 4°C. The supernatant was discarded, and the pellet was resuspended and centrifuged as before. The pellet was resuspended in 20 ml Tris-HCI buffer containing two International Units/ml of adenosine deaminase (Sigma type III from calf intestinal mucosa), incubated at 37°C for 30 minutes, then subsequently at 0°C for ten minutes. The homogenate was again centrifuged, and the final pellet was resuspended in ice-cold 0.05 M Tris-HCI buffer pH 7.7 to a concentration of 20 mg/ml original wet tissue weight and used immediately.
Tissue homogenate (10 mg/ml) was incubated in 0.05 M Tris-HCI buffer pH 7.7 containing 1.0 nM (^3H]-N^e-cyclohexyladenosine ([^3H]-CHA) with or without tests agents in triplicate for one hour at 25°C. Incubation volume was 2 ml. Unbound [^3H]-CHA was separated by rapid filtration under reduced pressure through Whatman glass fiber (GF/B) filters. The filters were rinsed three times with 5 ml of ice cold 0.05 M Tris-HCI buffer pH 7.7. The radio-labeled ligand retained on the filter was measured by liquid scintillation spectrophotometry after shaking the filters for one hour or longer on a mechanical shaker in 10 ml of Beckman Ready-Solv HP scintillation cocktail.
Nonspecific binding was defined as the binding which occurred in the presence of 1 mM theophylline. […] The Scatchard plot was calculated by linear regression of the line obtained by plotting the amount of radioligand bound (pmoles/gram of tissue) [formula] Since the amount of radioligand bound was a small fraction of the total amount added, free radioligand was defined as the concentration (nM) of radioligand added to the incubation mixture. The Hill coefficient was calculated by linear regression of the line obtained by plotting the log of the bound radioligand vs the log of the [formula] The maximal number of binding sites (Bmax) was calculated from the Scatchard plot.

adenosine A2 receptor = target: T2, adenosine A2 receptor (Rattus norvegicus, UniProt P30543); test: Adenosine Receptor Binding - A2 Receptor Affinity (RBA2), [3H]NECA displacement; conditions: 4 nM [3H]NECA with 50 nM N6-cyclopentyladenosine, rat striatal membranes, 60 minutes at 25°C; read-out: Receptor Binding RBA—2
T2 construct: Brains were thawed and then kept on ice while the striata were dissected out; tissue Pel-Freez (Rogers, Arkansas); host or cells: rat striatum, membranes
T2 sequence (P30543 whole entry): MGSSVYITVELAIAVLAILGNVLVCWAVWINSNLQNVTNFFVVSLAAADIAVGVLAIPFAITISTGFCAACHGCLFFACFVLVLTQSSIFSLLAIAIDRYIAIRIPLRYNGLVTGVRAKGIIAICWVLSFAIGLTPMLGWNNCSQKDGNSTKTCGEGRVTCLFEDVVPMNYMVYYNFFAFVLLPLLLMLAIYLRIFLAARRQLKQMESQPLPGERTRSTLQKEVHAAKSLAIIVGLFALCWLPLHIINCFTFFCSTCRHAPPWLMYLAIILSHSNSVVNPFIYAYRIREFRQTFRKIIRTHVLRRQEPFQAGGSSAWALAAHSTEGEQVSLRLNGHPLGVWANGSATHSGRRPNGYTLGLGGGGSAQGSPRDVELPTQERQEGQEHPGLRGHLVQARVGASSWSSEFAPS
Protocol: Brains from 200-500 g mixed sex Sprague-Dawley rats were purchased from Pel-Freez (Rogers, Arkansas). Fresh brains from male Long-Evans hooded rats (Blue Spruce Farms, Altamont, NY) gave essentially indentical results. Brains were thawed and then kept on ice while the striata were dissected out. Striata were disrupted in 10 vol of ice-cold 50 mM Tris.HCI (pH 7.7 at 25°C, pH 8.26 at 5°C) (Tris) for 30 seconds in a Polytron PT―10 (Brinkmann) at setting 5. The suspension was centrifuged at 50,000 xg for ten minutes, the supernatant discarded, the pellet resuspended in 10 vol ice-cold Tris as above, recentrifuged, resuspended at 1 g/5 ml, and stored in plastic vials at -70°C (stable for at least six months). When needed, tissue was thawed at room temperature, disrupted in a Polytron, and kept on ice until used.
All incubations were for 60 minutes at 25°C in 12x75 mm glass tubes containing 1 ml Tris with 5 mg original tissue weight of rat weight of rat striatal membranes, 4 nM [^3H]-N-ethyl adenosine-5'-carboxamide ([^3H]NECA), 50 nM N^6-cyclopentyladenosine (to eliminate A1 receptor binding), 10 mM MgCl2, 0.1 units/ml, of adenosine deaminase and 1% dimethylsulfoxide. N^6-Cyclopentyladenosine was dissolved at 10 mM in 0.02 N HCI and diluted in Tris. Stock solutions and dilutions of N^6-cyclopentyladenosine could be stored at -20°C for several months. Test compounds were dissolved at 10 mM in dimethylsulfoxide or the same day as the experiment, and diluted in dimethylsulfoxide to 100x the final incubation concentration. Control incubations received an equal volume (10 µl) of dimethylsulfoxide; the resulting concentration of dimethylsulfoxide had no effect on binding. [^3H]NECA was diluted to 40 nM in Tris. The membrane suspension (5 mg/0.79 ml) contained sufficient MgCl2 and adenosine deaminase to give 10 mM and 0.1 units/ml, respectively, final concentration in the incubation. […] After all additions, the rack of tubes was vortexed, and the tubes were then incubated for 60 min at 25°C in a shaking water bath. The rack of tubes was vortexed an additonal time halfway through the incubation.
Incubations were terminated by filtration through 2.4 cm GF/B filters under reduced pressure. Each tube was filtered as follows: the contents of the tube were poured onto the filter, 4 ml of ice-cold Tris were added to the tube and the contents poured onto the filter, and the filter was washed twice with 4 ml of ice-cold Tris. The filtration was complete in about twelve seconds. Filters were put in scintillation vials, 8 ml of Formula 947 scintillation fluid added, and the vials left overnight, shaken, and counted in a liquid scintillation counter at 40% efficiency.
Nonspecific binding was defined as binding in the presence of […] N^6-cyclopentyladenosine, and specific binding was defined as total binding minus nonspecific binding. The IC50 was calculated by weighted nonlinear least squares curve-fitting to the mass-action equation. [formula] • where Y is cpm bound T is cpm total binding without drug S is cpm specific binding without drug D is the concentration of drug • and K is the IC50 of the drug Weighting factors were calculated under the assumption that the standard deviation was proportional to the predicted value of Y. Nonspecific binding was treated as a very large (infinite) concentration of drug in the computer analysis.

[1] = system: Long-Evans rats or squirrel-monkeys; test: Conditioned avoidance of electric footshock by lever pushing (SIDR); assay type: in vivo
Protocol: A representative compound of the invention (identified in the Example 5) was also tested for antipsychotic activity according to the following protocol (SIDR). The noted compound has the indicated EDso values (mg/kg) and is considered active as an antipsychotic agent in the test procedure.
Mature male Long-Evans rats or squirrel-monkeys are conditioned to push a lever in order to avoid a painful electric footshock. If the animal fails to push the lever, he receives a shock every ten seconds until the lever is pushed. Shocks can be terminated by pushing the lever. Thereafter, as long as the lever is pushed at least once every 20 seconds, there will be no shock.
Each animal acts as its own control; one weekly session is used to establish baseline behavior and another session later in the week is used as a drug session. Once patterns of avoidance are established, the effects of standard and unknown compounds are studied.

male Swiss-Webster mice = test: Antiwrithing (AW) test, acetic acid induced writhing; assay type: in vivo; conditions: Mus musculus, ip; administered intraperitoneally to mice; read-out: ED50 (dose necessary to suppress writhing by 50% relative to vehicle controls)
[2] = 1.0 nM [3H]-CHA, read-out: Receptor Binding RBA—1
[3] = Receptor Binding RBA—1, 1.0 nM [3H]-CHA

| SMILES | pIC50 (adenosine A1 receptor; [2]) | pIC50 (adenosine A2 receptor) | ED50 ([1]; Rattus norvegicus, species of the result not stated (rats or squirrel-monkeys), read-out: ED50 for blockade of avoidance) | response for blockade of escape ([1]; at 4 mg/kg) | ED50 (male Swiss-Webster mice) | pIC50 (adenosine A1 receptor; [3]) |
| --- | --- | --- | --- | --- | --- | --- |
| C[C@H]1O[C@@H](n2cnc3c(NCC(c4ccccc4)c4ccccc4)ncnc32)[C@H](O)[C@@H]1O [Example 1, N^s-[2,2-Diphenylethyl]-5'-deoxyadenosine] | 6.64 | 5.95 |  |  |  |  |
| C[C@H]1O[C@@H](n2cnc3c(NC4CCc5ccccc54)ncnc32)[C@H](O)[C@@H]1O (stereo partly shown) [Example 2, N^6-[1-Indanyl]-5'-deoxyadenosine] | 5.77 | 4.67 |  |  |  |  |
| C[C@H](Cc1ccccc1)Nc1ncnc2c1ncn2[C@@H]1O[C@H](C)[C@@H](O)[C@H]1O [Example 3] | 7.40 | 5.24 |  |  |  |  |
| C[C@@H](Cc1ccccc1)Nc1ncnc2c1ncn2[C@@H]1O[C@H](C)[C@@H](O)[C@H]1O [Example 4, (S)-N^6-[Phenylisopropyl]-5'-deoxyadenosine] | 6.25 | 4.70 |  |  |  |  |
| C[C@H]1O[C@@H](n2cnc3c(NC4CCCC4)ncnc32)[C@H](O)[C@@H]1O [Example 5, N^6-[Cyclopentyl]-5'-deoxyadenosine] | 7.80 | 4.76 | 2.8 mg/kg | 10% | 0.9 mg/kg |  |
| C[C@H]1O[C@@H](n2cnc3c(NC4CCCCC4)ncnc32)[C@H](O)[C@@H]1O [Example 6, N^6-[Cyclohexyl]-5'-deoxyadenosine] | 7.28 | 4.67 |  |  |  |  |
| CSC[C@H]1O[C@@H](n2cnc3c(N[C@H](C)Cc4ccccc4)ncnc32)[C@H](O)[C@@H]1O [Example 7, (R)-N^6[Phenylisopropyl]-5'-deoxy-5'-thiomethyladenosine] |  | 5.20 |  |  |  | 7.29 |
| CSC[C@H]1O[C@@H](n2cnc3c(N[C@@H](C)Cc4ccccc4)ncnc32)[C@H](O)[C@@H]1O [Example 8, (S)-N^6-[Phenylisopropyl]-5'-deoxy-5'-thiomethyladenosine] |  | 4.36 |  |  |  | 6.15 |
| CSC[C@H]1O[C@@H](n2cnc3c(NC4CCCCC4)ncnc32)[C@H](O)[C@@H]1O [Example 9, N^6-[Cyclohexyl]-5'-deoxy-5'-thiomethyladenosine] |  | 5.13 |  |  |  | 8.05 |
| CSC[C@H]1O[C@@H](n2cnc3c(NC4CCCC4)ncnc32)[C@H](O)[C@@H]1O [Example 10, N^6-[Cyclopentyl]-5'-deoxy-5'-thiomethyladenosine] | 7.89 | 5.14 |  |  |  |  |
| CSC[C@H]1O[C@@H](n2cnc3c(NCC(c4ccccc4)c4ccccc4)ncnc32)[C@H](O)[C@@H]1O [Example 11, N^6-[2,2-Diphenyl]-5'-deoxy-5'-thiomethyladenosine] |  | 5.70 |  |  |  | 6.18 |
| CSC[C@H]1O[C@@H](n2cnc3c(NC4CCc5ccccc54)ncnc32)[C@H](O)[C@@H]1O (stereo partly shown) [Example 12, N^6-[1-Indanyl]-5'-deoxy-5'-thiomethyladenosine] |  | 4.24 |  |  | 3 mg/kg | 5.83 |
| O[C@@H]1[C@H](O)[C@@H](CCl)O[C@H]1n1cnc2c(NCC(c3ccccc3)c3ccccc3)ncnc21 [Example 13, N^6-[2,2-Diphenylethyl]-5'-deoxy-5'-chloroadenosine] | 7.28 | 6.62 |  |  |  |  |
| O[C@@H]1[C@H](O)[C@@H](CCl)O[C@H]1n1cnc2c(NC3CCc4ccccc43)ncnc21 (stereo partly shown) [Example 14, N^6-[1-Indanyl]-5'-deoxy-5'-chloroadenosine] | 6.66 | 5.06 |  |  |  |  |
| C[C@H](Cc1ccccc1)Nc1ncnc2c1ncn2[C@@H]1O[C@H](CCl)[C@@H](O)[C@H]1O [Example 15, (R)-N^6-[Phenylisopropyl]-5'-deoxy-5'-chloro-adenosine] | 8.52 | 5.80 |  |  | 1.8 mg/kg |  |
| C[C@@H](Cc1ccccc1)Nc1ncnc2c1ncn2[C@@H]1O[C@H](CCl)[C@@H](O)[C@H]1O [Example 16, (S)-N^6-[Phenylisopropyl]-5'-deoxy-5'-chloroadenosine] | 7.46 | 5.10 |  |  |  |  |
| O[C@@H]1[C@H](O)[C@@H](CCl)O[C@H]1n1cnc2c(NC3CCCCC3)ncnc21 [Example 17, N^6-[Cyclohexyl]-5' -deoxy-5' -chloro-adenosine] | 8.70 | 5.57 |  |  |  |  |
| O[C@@H]1[C@H](O)[C@@H](CCl)O[C@H]1n1cnc2c(NC3CCCC3)ncnc21 [Example 18, N^6-[Cyclopentyl]-5'-deoxy-5'-chloroadenosine] | 8.92 | 5.55 |  |  |  |  |
| CC(=O)O[C@@H]1[C@H](OC(C)=O)[C@@H](C)O[C@H]1n1cnc2c(NCc3cccc4ccccc34)ncnc21 [Example 21, N^6-a-Naphthylmethyl-2',3'-di-O-acetyl-5'-deoxyadenosine] | 5.60 |  |  |  |  |  |
| CC(=O)O[C@@H]1[C@H](OC(C)=O)[C@@H](C)O[C@H]1n1cnc2c(NC3CCCc4ccccc43)ncnc21 (stereo partly shown) [Example 22, N^6-1-Tetralinyl-2' ,3'-di-O-acetyl-5'-deoxyadenosine] | 6.22 |  |  |  |  |  |
